This is an account of results in US20230271956A1, “AMIDE DERIVATIVES” (Merck Patent GmbH, priority 2020, published 2023).

In one assay the target is T1, human rec ACSS2 (Homo sapiens, UniProt Q9NR19).
T1 construct: myc (C); purchased Origene
In words: Biochemical activity ACSS2 assay (AMP-Glo). The note with it: human recombinant ACSS2, AMP-Glo, 180 min at 37° C. As for the experimental part:
The biochemical activity assay for ACSS2 is based on the detection of released AMP by AMP-Glo ™ Assay kit (Promega, Madison). The assay is run in three steps: the enzymatic reaction in which human rec ACSS2 activates acetate with ATP and Coenzyme A as cosubstrates to acetyI-coA thereby releasing AMP and the detection reaction of AMP by AMP Glo assay in which after the destruction of the residual ATP with AMP Glo reagent 1 produced AMP is converted to ATP that is measured in a luciferase assay system (detection reagent). The ACSS2 activity correlates with the detected luminescence signal.
The assay was performed in Perkin Elmer 384well white Proxiplates in a total volume of 8 µl.
1 nM (fc) C-term myc tagged ACSS2 (human, recombinant, Origene, Rockville, US) and a mixture of 100 µM (fc) ATP, 100 µM (fc) Coenzyme A and 500 µM (fc) sodium acetate were incubated in a total volume of 5 µl (50 mM Hepes, 1 mM Mg-chloride, 150 mM NaCl, 1 mM DTT, 0.01 % (w/v) BSA, 0.3 % DMSO, pH 7.5) in the absence or presence of the test compound (10 dilution concentrations, start conc 30 µM) for 180 min at 37° C. The reaction was stopped and residual ATP destroyed by the addition of 1 µl AMP Glo reagent solution (Promega, Madison, US). After 1 h incubation at room temperature 2 µl of AMP Glo detection reagent was added and the assay was incubated for 0.75 hr at room temperature. The luminescence signal was measured with an Envision multimode reader (Perkin Elmer LAS Germany GmbH) at 700 nm in luminescence mode. The full value used was the inhibitor-free reaction. The pharmacological zero value was generated by addition of ACSS2 inhibitor (Ac-CoA Synthase Inhibitor - CAS 508186-14-9 -Calbiochem) in a final concentration of 5 µM. The inhibitory values (IC50) were determined using the program Assay Analyzer® from GeneData.

For a further assay, the target named is T2, ACSS2 (Homo sapiens, UniProt Q9NR19).
T2 construct: endogenous fatty acid synthesis activity in the human HCT-15 cancer cell line; endogenous in cells; host or cells: HCT-15
The assay is described as follows: Cellular assay of 14C acetate incorporation into histones (IC50 ACSS2 cellular histone). The format is cell-based. Conditions: HCT-15 cells. As for the experimental part: This protocol describes a cellular assay capable to quantify endogenous histone acetylation activity in the human HCT-15 cancer cell line following the incorporation of extracellularly administered radiolabeled ^14C acetate with a scintillation based read out on acid extracted histones.
HCT-15 cells are trypsinized, washed and suspended in DMEM culture medium supplemented with penicillin/streptomycin (100 U/mL), sodium pyruvate (1 mM), and 10% FBS
Compounds serial dilutions are prepared in 96-well V-bottom microplate from 10 mM stock solutions in DMSO. From these dilutions 0.5 µl are transferred to a fresh plate including pure DMSO as negative control. The dilutions are prepared such, that the final concentration in the assay is 1/400 of the concentration in the serial dilution. The final DMSO concentration in the assay is 0.25 %.
The cell suspension is seeded at densities of 2x10^5 cells per 170 µl into individual wells of a 96 well plate each containing 0.5 µl aliquots of compound serial dilutions and are kept for 1h in a cell incubator. To each well 30 µL of a mixture containing 0.5 mCi/mL of ^14C-acetate with full medium are added. Then, the wells are incubated for 3 hrs in the cell incubator.
Further steps of the procedure should be conducted on ice or instrumentations precooled to 4° C. Cells are sedimented in the 96-well V-bottom microplate by centrifugation (Eppendorf 5804 R) at 1200 rpm for 5 min. The supernatant is removed and the cells are washed twice with 200µL of PBS-NaB (5 mM sodium butyrate) buffer by iterative resuspension and centrifugation. Finally, the cells are resuspended in 50 µL of TEB (PBS-NaB + 0.5 % Triton X-100) and left on ice for 10 minutes. After centrifugation at 2300 rpm for 10 minutes at 4° C. the supernatant is removed, the remaining pellet is suspended in 50 µL of 0.2 M HCl and incubated over night at 4° C. After incubation the well plate is shaken for 2 minutes in a MTP plate shaker set to 1200 rpm and then centrifuged at 3700 rpm for 10 mins. The lysate is carefully aspirated (~43 µL) and transferred into a white MTP plate (Greiner bio-one 65509). 90 µL of Ultima Gold XR scintillation cocktail are added and the plates are sealed with a transparent cover tape before mixing vigorously using plate shaker set to 1200 rpm. Radioactivity from ^14C incorporation in the wells is measured as CPM count in a MicroBeta Trilux luminescence counter.

The structures appear in SMILES notation. pIC50: −log10 of the molar value.

As a reminder, the pIC50 is the IC50 on a negative log10 scale, so that one unit is a factor of ten.

T1 sequence (Q9NR19 whole entry): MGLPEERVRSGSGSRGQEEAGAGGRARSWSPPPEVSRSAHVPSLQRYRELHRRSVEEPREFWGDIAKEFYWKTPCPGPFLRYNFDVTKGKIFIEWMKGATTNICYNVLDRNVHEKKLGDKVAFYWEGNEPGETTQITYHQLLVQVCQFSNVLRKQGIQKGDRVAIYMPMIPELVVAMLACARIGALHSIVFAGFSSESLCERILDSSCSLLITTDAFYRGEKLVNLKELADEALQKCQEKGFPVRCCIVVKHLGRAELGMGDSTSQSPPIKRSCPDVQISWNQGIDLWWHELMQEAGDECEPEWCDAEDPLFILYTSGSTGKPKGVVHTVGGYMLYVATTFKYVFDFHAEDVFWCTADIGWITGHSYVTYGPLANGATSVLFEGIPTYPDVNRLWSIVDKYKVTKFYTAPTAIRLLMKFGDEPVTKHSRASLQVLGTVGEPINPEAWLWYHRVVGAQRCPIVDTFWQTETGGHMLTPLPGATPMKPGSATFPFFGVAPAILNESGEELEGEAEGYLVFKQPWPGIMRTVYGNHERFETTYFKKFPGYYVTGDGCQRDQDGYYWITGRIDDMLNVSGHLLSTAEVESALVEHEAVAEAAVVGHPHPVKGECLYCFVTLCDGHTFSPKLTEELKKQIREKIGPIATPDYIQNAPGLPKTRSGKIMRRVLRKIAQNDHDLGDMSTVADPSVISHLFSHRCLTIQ
T2 sequence (Q9NR19 whole entry): as above

Consider `CCn1cnc(NC(=O)c2cc3c(nc2OC)nc(C(O)(c2ccccc2)c2ccccc2)n3CCOC)n1` [Compound 41, N-(1-ethyl-1H-1,2,4-triazol-3-yl)-2-(hydroxydiphenylmethyl)-5-methoxy-1-(2-methoxyethyl)-1H-imidazo[4,5-b]pyridine-6-carboxamide], for which the pIC50 at human rec ACSS2 and on ACSS2 was 8.00 to 9.00 throughout.

Regarding `CCn1cnc(NC(=O)c2cc3c(nc2C)nc(C(O)(c2ccccc2F)c2ccccc2F)n3CC)n1` [Compound 106, 2-[bis(2-fluorophenyl)(hydroxy)methyl]-1-ethyl-N-(1-ethyl-1H-1,2,4-triazol-3-yl)-5-methyl-1H-imidazo[4,5-b]pyridine-6-carboxamide], the pIC50 on human rec ACSS2 and on ACSS2 was 8.00 to 9.00 each time.

Turning to `CCn1cnc(NC(=O)c2cc3c(nc2OC)nc(C(O)(c2ccccc2)c2ccccc2OC)n3CC)n1` (racemic) [Compound 57, 1-ethyl-N-(1-ethyl-1H-1,2,4-triazol-3-yl)-2-[hydroxy(2-methoxyphenyl)phenylmethyl]-5-methoxy-1H-imidazo[4,5-b]pyridine-6-carboxamide], the pIC50 is 5.00 to 7.00 on human rec ACSS2 and 7.00 to 8.00 against ACSS2.

Regarding `CCn1c(C(O)(c2ccccc2)c2ccccc2)nc2nc(OC)c(C(=O)Nc3cnn(CCOC)c3)cc21` [Compound 70, 1-ethyl-2-(hydroxydiphenylmethyl)-5-methoxy-N-[1-(2-methoxyethyl)-1H-pyrazol-4-yl]-1H-imidazo[4,5-b]pyridine-6-carboxamide], the pIC50 on human rec ACSS2 and at ACSS2 was 7.00 to 8.00 each time.

For `CCn1cnc(NC(=O)c2cnc3nc(C(O)(c4ccccc4F)c4ccccc4F)n(CC)c3c2)n1` [Compound 110, 2-[bis(2-fluorophenyl)(hydroxy)methyl]-1-ethyl-N-(1-ethyl-1H-1,2,4-triazol-3-yl)-1H-imidazo[4,5-b]pyridine-6-carboxamide], the pIC50 at human rec ACSS2 and at ACSS2 was 8.00 to 9.00 throughout.

Turning to `CCn1ccc(NC(=O)c2cc3c(nc2OC)nc(C(O)(c2ccccc2)c2ccccc2)n3CC)n1` [Compound 77, 1-ethyl-N-(1-ethyl-1H-pyrazol-3-yl)-2-(hydroxydiphenylmethyl)-5-methoxy-1H-imidazo[4,5-b]pyridine-6-carboxamide], the pIC50 on human rec ACSS2 and at ACSS2 was 8.00 to 9.00 in each case.

Consider `CCn1cnc(NC(=O)c2cc3c(nc2OC)nc(C(O)(c2ccccc2)c2ccc(OC(F)F)cc2)n3CC)n1` (racemic) [Compound 86, 2-{[4-(difluoromethoxy)phenyl](hydroxy)phenylmethyl}-1-ethyl-N-(1-ethyl-1H-1,2,4-triazol-3-yl)-5-methoxy-1H-imidazo[4,5-b]pyridine-6-carboxamide], for which the pIC50 at human rec ACSS2 and against ACSS2 was 8.00 to 9.00 each time.

`CCn1cc(NC(=O)c2cc3c(nc2Cl)nc(C(O)(c2ccc(OC(F)F)cc2)c2ccccc2F)n3CC)cn1` (racemic) [Compound 85, 5-chloro-2-{[4-(difluoromethoxy)phenyl](2-fluorophenyl)hydroxymethyl}-1-ethyl-N-(1-ethyl-1H-pyrazol-4-yl)-1H-imidazo[4,5-b]pyridine-6-carboxamide]: the pIC50 at human rec ACSS2 and at ACSS2 was 7.00 to 8.00 each time.

`CCn1cnc(NC(=O)c2cc3c(nc2OC)nc(C(O)(c2ccccc2)c2nccs2)n3CC)n1` (racemic) [Compound 44, 1-ethyl-N-(1-ethyl-1H-1,2,4-triazol-3-yl)-2-[hydroxy(phenyl)(1,3-thiazol-2-yl)methyl]-5-methoxy-1H-imidazo[4,5-b]pyridine-6-carboxamide]: the pIC50 on human rec ACSS2 and against ACSS2 was 8.00 to 9.00 each time.

As to `CCn1cc(NC(=O)c2cc3c(nc2C)nc(C(O)(c2ccccc2)c2ccccc2)n3CC)cn1` [Compound 109, 1-ethyl-N-(1-ethyl-1H-pyrazol-4-yl)-2-(hydroxydiphenylmethyl)-5-methyl-1H-imidazo[4,5-b]pyridine-6-carboxamide], the pIC50 on human rec ACSS2 and on ACSS2 was 8.00 to 9.00 in each case.

As for `CCn1cnc(NC(=O)c2cc3c(nc2OC)nc(C(O)(c2ccccc2C)c2ccccc2C)n3CC)n1` [Compound 52, 1-ethyl-N-(1-ethyl-1H-1,2,4-triazol-3-yl)-2-[hydroxybis(2-methylphenyl)methyl]-5-methoxy-1H-imidazo[4,5-b]pyridine-6-carboxamide], the pIC50 on human rec ACSS2 and on ACSS2 was 7.00 to 8.00 in each case.

As to `CCn1cnc(NC(=O)c2cc3c(nc2Cl)nc(C(O)(c2ccccc2)c2ccccc2)n3CC)n1` [Compound 99, 5-chloro-1-ethyl-N-(1-ethyl-1H-1,2,4-triazol-3-yl)-2-(hydroxydiphenylmethyl)-1H-imidazo[4,5-b]pyridine-6-carboxamide], the pIC50 is 8.00 to 9.00 at human rec ACSS2 and 9.00 to 11.00 against ACSS2.

Consider `CCn1cnc(NC(=O)c2cc3c(nc2Cl)nc(C(O)(c2ccccc2)c2ccccc2)n3CC)c1` [Compound 82, 5-chloro-1-ethyl-N-(1-ethyl-1H-imidazol-4-yl)-2-(hydroxydiphenylmethyl)-1H-imidazo[4,5-b]pyridine-6-carboxamide], for which the pIC50 is 8.00 to 9.00 at human rec ACSS2 and 9.00 to 11.00 against ACSS2.

In the case of `CCn1ncc(NC(=O)c2cc3c(nc2OC)nc(C(O)(c2ccccc2)c2ccccc2)n3CC)n1` [Compound 58, 1-ethyl-N-(2-ethyl-2H-1,20,3-triazol-4-yl)-2-(hydroxydiphenylmethyl)-5-methoxy-1H-imidazo[4,5-b]pyridine-6-carboxamide], the pIC50 at human rec ACSS2 and at ACSS2 was 7.00 to 8.00 throughout.

Take `CCn1c(C(O)(c2ccccc2)c2ccccc2)nc2nc(Cl)c(C(=O)Nc3cnn(CCOC)c3)cc21` [Compound 67, 5-chloro-1-ethyl-2-(hydroxydiphenylmethyl)-N-[1-(2-methoxyethyl)-1H-pyrazol-4-yl]-1H-imidazo[4,5-b]pyridine-6-carboxamide]: the pIC50 on human rec ACSS2 and at ACSS2 was 7.00 to 8.00 in each case.

Turning to `CCn1cc(NC(=O)c2cnc3nc(C(O)(c4ccccc4)c4ccccc4)n(C)c3c2)cn1` [Compound 114, N-(1-ethyl-1H-pyrazol-4-yl)-2-(hydroxydiphenylmethyl)-1-methyl-1H-imidazo[4,5-b]pyridine-6-carboxamide], the pIC50 at human rec ACSS2 and against ACSS2 was 7.00 to 8.00 each time.

As for `CCn1cc(NC(=O)c2cc3c(nc2OC)nc(C(O)(c2ccccc2)c2ccc(OC(F)F)cc2)n3CC)cn1` (racemic) [Compound 80, 2-{[4-(difluoromethoxy)phenyl](hydroxy)phenylmethyl}-1-ethyl-N-(1-ethyl-1H-pyrazol-4-yl)-5-methoxy-1H-imidazo[4,5-b]pyridine-6-carboxamide], the pIC50 at human rec ACSS2 and against ACSS2 was 7.00 to 8.00 in each case.
